According to article PMC11470957, “Principles of paralog-specific targeted protein degradation engaging the C-degron E3 KLHDC2” (Nature Communications, 2024):
Read-outs that look alike come from different tables or passages of the source.

Biological target: BRD2 (Homo sapiens, UniProt P25440)
Experiment: Western blot of BRD2 levels after cellular dosing
Conditions: for remaining activity at 2.19382 µM: Log SJ46420 (uM) 2.19382; for remaining activity at 2.79588 µM: Log SJ46420 (uM) 2.79588; for remaining activity at 3.09691 µM: Log SJ46420 (uM) 3.09691; for remaining activity at 3.39794 µM: Log SJ46420 (uM) 3.39794; for remaining activity at 3.69897 µM: Log SJ46420 (uM) 3.69897; for remaining activity at 4 µM: Log SJ46420 (uM) 4
[1] = 22Rv1, read-out: BRD2 (DMSO = 100), 22Rv1 cells, Rep1, Rep2
[2] = PC-3, read-out: BRD2 (DMSO = 100), PC3 cells, Rep1, Rep2

BRD2, sequence (P25440 whole entry): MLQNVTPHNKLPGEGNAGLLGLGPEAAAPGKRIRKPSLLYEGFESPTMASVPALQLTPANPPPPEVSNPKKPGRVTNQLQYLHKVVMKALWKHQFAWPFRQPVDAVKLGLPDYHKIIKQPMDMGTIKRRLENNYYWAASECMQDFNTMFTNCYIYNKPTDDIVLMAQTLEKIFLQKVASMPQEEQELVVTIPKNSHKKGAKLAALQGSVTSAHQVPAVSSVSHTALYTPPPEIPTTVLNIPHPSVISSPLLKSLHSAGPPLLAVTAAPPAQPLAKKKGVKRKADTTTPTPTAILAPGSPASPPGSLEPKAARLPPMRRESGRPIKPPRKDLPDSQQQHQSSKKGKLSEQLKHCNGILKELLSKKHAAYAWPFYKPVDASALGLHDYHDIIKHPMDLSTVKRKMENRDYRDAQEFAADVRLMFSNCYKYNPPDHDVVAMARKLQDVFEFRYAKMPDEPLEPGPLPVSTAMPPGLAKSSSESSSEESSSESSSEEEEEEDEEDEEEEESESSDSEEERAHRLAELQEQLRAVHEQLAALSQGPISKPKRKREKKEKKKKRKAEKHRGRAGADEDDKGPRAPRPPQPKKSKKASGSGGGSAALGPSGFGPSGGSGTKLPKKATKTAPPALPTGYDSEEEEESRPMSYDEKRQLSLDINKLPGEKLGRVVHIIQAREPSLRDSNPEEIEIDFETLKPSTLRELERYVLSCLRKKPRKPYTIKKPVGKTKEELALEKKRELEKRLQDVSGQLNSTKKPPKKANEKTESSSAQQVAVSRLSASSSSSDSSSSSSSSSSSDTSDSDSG

In the case of `COC(=O)CNC(=O)Cc1csc(-c2ccc3cccc(OCCN4CCN(C(=O)C[C@@H]5N=C(c6ccc(Cl)cc6)c6c(sc(C)c6C)-n6c(C)nnc65)CC4)c3c2)n1` [SJ46420], the remaining activity at 0.16 µM (22Rv1, 24 h, read-out: BRD2 level relative to DMSO (100%), 22Rv1, 0.16µM, 24 h, Fig S6f) is reported as 99 ± 7.4%, the remaining activity at 0.31 µM (22Rv1, 24 h, read-out: BRD2 level relative to DMSO (100%), 22Rv1, 0.31µM, 24 h, Fig S6f) is reported as 92 ± 16% and the remaining activity at 0.63 µM (22Rv1, 24 h, read-out: BRD2 level relative to DMSO (100%), 22Rv1, 0.63µM, 24 h, Fig S6f) is reported as 93 ± 8.7%. The remaining activity at 1.3 µM (22Rv1, 24 h, read-out: BRD2 level relative to DMSO (100%), 22Rv1, 1.3µM, 24 h, Fig S6f) was 88 ± 1.3%, the remaining activity at 2.5 µM (22Rv1, 24 h, read-out: BRD2 level relative to DMSO (100%), 22Rv1, 2.5µM, 24 h, Fig S6f) was 83 ± 5.5% and the remaining activity at 5 µM (22Rv1, 24 h, read-out: BRD2 level relative to DMSO (100%), 22Rv1, 5µM, 24 h, Fig S6f) was 87 ± 7.4%. It also gave a remaining activity at 10 µM (22Rv1, 24 h, read-out: BRD2 level relative to DMSO (100%), 22Rv1, 10µM, 24 h, Fig S6f) of 92 ± 5.6%, a remaining activity at 2.19382 µM [1] of 94.2% and a remaining activity at 2.79588 µM [1] of 98.7%. It also gave a remaining activity at 3.09691 µM [1] of 88.1%, a remaining activity at 3.39794 µM [1] of 87.2% and a remaining activity at 3.69897 µM [1] of 92.7%. For the same molecule, the remaining activity at 4 µM [1] was 96.3%, the Dmax (22Rv1, read-out: BRD2 Dmax, 22Rv1, 24 h dose) was 0% and the remaining activity at 0.156 µM (22Rv1, read-out: BRD2 level, Western blot quantification (DMSO = 100), Fig S6f, 22RV1 KO/rescue Dose Response, 0.156 uM) was 94.2%. It also gave a remaining activity at 0.625 µM (22Rv1, read-out: BRD2 level, Western blot quantification (DMSO = 100), Fig S6f, 22RV1 KO/rescue Dose Response, 0.625 uM) of 98.7%, a remaining activity at 1.25 µM (22Rv1, read-out: BRD2 level, Western blot quantification (DMSO = 100), Fig S6f, 22RV1 KO/rescue Dose Response, 1.25 uM) of 88.1% and a remaining activity at 2.5 µM (22Rv1, read-out: BRD2 level, Western blot quantification (DMSO = 100), Fig S6f, 22RV1 KO/rescue Dose Response, 2.5 uM) of 87.2%. It also gave a remaining activity at 5 µM (22Rv1, read-out: BRD2 level, Western blot quantification (DMSO = 100), Fig S6f, 22RV1 KO/rescue Dose Response, 5 uM) of 92.7%, a remaining activity at 10 µM (22Rv1, read-out: BRD2 level, Western blot quantification (DMSO = 100), Fig S6f, 22RV1 KO/rescue Dose Response, 10uM) of 96.3% and a remaining activity at 0.16 µM (24 h, read-out: BRD2 level relative to DMSO (100%), PC3, 0.16µM, 24 h, Fig S6e) of 90 ± 11%. For the same molecule, the remaining activity at 0.31 µM (24 h, read-out: BRD2 level relative to DMSO (100%), PC3, 0.31µM, 24 h, Fig S6e) was 98 ± 2.9%, the remaining activity at 0.63 µM (24 h, read-out: BRD2 level relative to DMSO (100%), PC3, 0.63µM, 24 h, Fig S6e) was 83 ± 3.4% and the remaining activity at 1.3 µM (24 h, read-out: BRD2 level relative to DMSO (100%), PC3, 1.3µM, 24 h, Fig S6e) was 89 ± 5.6%. The remaining activity at 2.5 µM (24 h, read-out: BRD2 level relative to DMSO (100%), PC3, 2.5µM, 24 h, Fig S6e) was 92 ± 9.1%, the remaining activity at 5 µM (24 h, read-out: BRD2 level relative to DMSO (100%), PC3, 5µM, 24 h, Fig S6e) was 91 ± 7.6% and the remaining activity at 10 µM (24 h, read-out: BRD2 level relative to DMSO (100%), PC3, 10µM, 24 h, Fig S6e) was 88 ± 9.1%. For the same molecule, the remaining activity at 0.2 µM (AU565, 8 h, read-out: BRD2 level relative to DMSO (100%), AU565, 0.2µM, 8 h, Fig S6c) was 93 ± 3.1%, the remaining activity at 1 µM (AU565, 8 h, read-out: BRD2 level relative to DMSO (100%), AU565, 1µM, 8 h, Fig S6c) was 96 ± 6.2% and the remaining activity at 5 µM (AU565, 8 h, read-out: BRD2 level relative to DMSO (100%), AU565, 5µM, 8 h, Fig S6c) was 90 ± 5.1%. For the same molecule, the remaining activity at 0.2 µM (AU565, read-out: BRD2 level, Western blot quantification (DMSO = 100), Fig S6c, AU565 Cells, 0.2 uM) was 91.6%, the remaining activity at 1 µM (AU565, read-out: BRD2 level, Western blot quantification (DMSO = 100), Fig S6c, AU565 Cells, 1 uM) was 101% and the remaining activity at 5 µM (AU565, read-out: BRD2 level, Western blot quantification (DMSO = 100), Fig S6c, AU565 Cells, 5 uM) was 87%. For the same molecule, the remaining activity at 2.5 µM (HEK-293T, 24 h, read-out: BRD2 level relative to DMSO (100%), 293T, 2.5µM, 24 h, Fig S6a) was 89 ± 9.5%, the remaining activity at 5 µM (HEK-293T, 24 h, read-out: BRD2 level relative to DMSO (100%), 293T, 5µM, 24 h, Fig S6a) was 92 ± 2.5% and the remaining activity at 2.5 µM (HEK-293T, read-out: BRD2 level, Western blot quantification (DMSO = 100), Fig S6a, 293T cells, 2.5 uM) was 82%. It also gave a remaining activity at 5 µM (HEK-293T, read-out: BRD2 level, Western blot quantification (DMSO = 100), Fig S6a, 293T cells, 5 uM) of 91.4%, a remaining activity at 2.5 µM (MDA-MB-468, 24 h, read-out: BRD2 level relative to DMSO (100%), MDA-MB-468, 2.5µM, 24 h, Fig S6b) of 79 ± 8.9% and a remaining activity at 5 µM (MDA-MB-468, 24 h, read-out: BRD2 level relative to DMSO (100%), MDA-MB-468, 5µM, 24 h, Fig S6b) of 89 ± 3.9%. It also gave a remaining activity at 10 µM (MDA-MB-468, 24 h, read-out: BRD2 level relative to DMSO (100%), MDA-MB-468, 10µM, 24 h, Fig S6b) of 91 ± 3.1%, a remaining activity at 2 µM (MDA-MB-468, read-out: BRD2 level, Western blot quantification (DMSO = 100), Fig S6b, MDA-MB468 Cells, 2 uM) of 73.4% and a remaining activity at 5 µM (MDA-MB-468, read-out: BRD2 level, Western blot quantification (DMSO = 100), Fig S6b, MDA-MB468 Cells, 5 uM) of 86.5%. For the same molecule, the remaining activity at 10 µM (MDA-MB-468, read-out: BRD2 level, Western blot quantification (DMSO = 100), Fig S6b, MDA-MB468 Cells, 10 uM) was 89.6%, the remaining activity at 1.89279 µM (PC-3, read-out: BRD2 (DMSO = 100), PC3 cells, Log SJ46420 (uM) 1.89279, Rep1, Rep2) was 89% and the remaining activity at 2.19382 µM [2] was 83.3%. The remaining activity at 2.49485 µM (PC-3, read-out: BRD2 (DMSO = 100), PC3 cells, Log SJ46420 (uM) 2.49485, Rep1, Rep2) was 100%, the remaining activity at 2.79588 µM [2] was 81.2% and the remaining activity at 3.09691 µM [2] was 85.7%. For the same molecule, the remaining activity at 3.39794 µM [2] was 86.6%, the remaining activity at 3.69897 µM [2] was 86.5% and the remaining activity at 4 µM [2] was 81.6%. The remaining activity at 1 µM (SK-BR-3, 2 h, read-out: BRD2 level relative to DMSO (100%), SKBR3, 1µM, 2hr, Fig S6g) was 71 ± 3.9%, the remaining activity at 5 µM (SK-BR-3, 2 h, read-out: BRD2 level relative to DMSO (100%), SKBR3, 5µM, 2hr, Fig S6g) was 69 ± 10% and the remaining activity at 1 µM (SK-BR-3, 2 h, read-out: BRD2 level, Western blot quantification (DMSO = 100), Fig S6g, SKBR3 Time course, 1 uM, 2hr) was 67.4%. It also gave a remaining activity at 5 µM (SK-BR-3, 2 h, read-out: BRD2 level, Western blot quantification (DMSO = 100), Fig S6g, SKBR3 Time course, 5 uM, 2hr) of 61.5%, a remaining activity at 1 µM (SK-BR-3, 4 h, read-out: BRD2 level relative to DMSO (100%), SKBR3, 1µM, 4hr, Fig S6g) of 82 ± 4% and a remaining activity at 5 µM (SK-BR-3, 4 h, read-out: BRD2 level relative to DMSO (100%), SKBR3, 5µM, 4hr, Fig S6g) of 83 ± 6.1%.
